Experimental data as given in ChEMBL document CHEMBL5726350, “Histone demethylase inhibitors” (2017).

Experiments:
[1] = target: Lysine-specific demethylase 5A (Homo sapiens, UniProt P29375); test: Enzymatic Assay: The enzymatic assay of Jarid1A activity is based upon Time Resolved-Fluorescence Resonance Energy Transfer (TR-FRET) detection. The ability of test compounds to inhibit the activity of Jarid1A was determined in 384-well plate format under the following reaction conditions: 1 nM Jarid1A, 300 nM H3K4me3-biotin labeled peptide (Anaspec cat #64357), 2 μM alpha-ketoglutaric acid in assay buffer of 50 mM HEPES, pH7.3, 0.005% Brij35, 0.5 mM TCEP, 0.2 mg/ml BSA, 50 μM sodium L-ascorbate, and 2 μM ammonium iron(II) sulfate. Reaction product was determined quantitatively by TR-FRET after the addition of detection reagent Phycolink Streptavidin-allophycocyanin (Prozyme) and Europium-anti-mono- or di-methylated histone H3 lysine 4 (H3K4me1-2) antibody (PerkinElmer) in the presence of 5 mM EDTA in LANCE detection buffer (PerkinElmer) at a final concentration of 25 nM and 1 nM, respectively.The assay reaction was initiated by the following: 2 μl of the mixture of 900 nM H3K4me3-biotin labeled peptide and 6 μM alpha-ketoglutaric acid with 2 μl of 11-point serial diluted inhibitor in 3% DMSO was added to each well of plate, followed by the addition of 2 μl of 3 nM Jarid1A to initiate the reaction.
[2] = target: Lysine-specific demethylase 5B (Homo sapiens, UniProt Q9UGL1); test: Enzymatic Assay: The ability of test compounds to inhibit the activity of Jarid1B was determined in 384-well plate format under the following reaction conditions: 0.8 nM Jarid1B, 300 nM H3K4me3-biotin labeled peptide (Anaspec cat #64357), 2 μM alpha-ketoglutaric acid in assay buffer of 50 mM HEPES, pH7.3, 0.005% Brij35, 0.5 mM TCEP, 0.2 mg/ml BSA, 50 μM sodium L-ascorbate, and 2 μM ammonium iron(II) sulfate. Reaction product was determined quantitatively by TR-FRET after the addition of detection reagent Phycolink Streptavidin-allophycocyanin (Prozyme) and Europium-anti-mono- or di-methylated histone H3 lysine 4 (H3K4me1-2) antibody (PerkinElmer) in the presence of 5 mM EDTA in LANCE detection buffer (PerkinElmer) at a final concentration of 25 nM and 1 nM, respectively.The assay reaction was initiated by the following: 2 μl of the mixture of 900 nM H3K4me3-biotin labeled peptide and 6 μM alpha-ketoglutaric acid with 2 μl of 11-point serial diluted inhibitor in 3% DMSO was added to each well of the plate, followed by the addition of 2 μl of 2.4 nM Jarid1B to initiate the reaction. The reaction mixture was incubated at room temperature for 30 minutes, and terminated by the addition of 6 μl of 5 mM EDTA in LANCE detection buffer containing 50 nM Phycolink Streptavidin-allophycocyanin and 2 nM Europium-anti-H3K4me1-2 antibody.
[3] = target: T1, Lysine-specific demethylase 4C (Homo sapiens, UniProt Q9H3R0); test: Enzymatic Assay: The ability of test compounds to inhibit the activity of JMJD2C was determined in 384-well plate format under the following reaction conditions: 0.3 nM JMJD2C, 300 nM H3K9me3-biotin labeled peptide (Anaspec cat #64360), 2 μM alpha-ketoglutaric acid in assay buffer of 50 mM HEPES, pH7.3, 0.005% Brij35, 0.5 mM TCEP, 0.2 mg/ml BSA, 50 μM sodium L-ascorbate, and 2 μM ammonium iron(II) sulfate. Reaction product was determined quantitatively by TR-FRET after the addition of detection reagent Phycolink Streptavidin-allophycocyanin (Prozyme) and Europium-anti-di-methylated histone H3 lysine 9 (H3K9me2) antibody (PerkinElmer) in the presence of 5 mM EDTA in LANCE detection buffer (PerkinElmer) at a final concentration of 50 nM and 1 nM, respectively.The assay reaction was initiated by the following: 2 μl of the mixture of 900 nM H3K9me3-biotin labeled peptide and 6 μM alpha-ketoglutaric acid with 2 μl of 11-point serial diluted inhibitor in 3% DMSO were added to each well of the plate, followed by the addition of 2 μl of 0.9 nM JMJD2C to initiate the reaction. The reaction mixture was incubated at room temperature for 30 minutes, and terminated by the addition of 6 μl of 5 mM EDTA in LANCE detection buffer containing 100 nM Phycolink Streptavidin-allophycocyanin and 2 nM Europium-anti-H3K9me2 antibody. […]
T1 sequence (Q9H3R0 whole entry): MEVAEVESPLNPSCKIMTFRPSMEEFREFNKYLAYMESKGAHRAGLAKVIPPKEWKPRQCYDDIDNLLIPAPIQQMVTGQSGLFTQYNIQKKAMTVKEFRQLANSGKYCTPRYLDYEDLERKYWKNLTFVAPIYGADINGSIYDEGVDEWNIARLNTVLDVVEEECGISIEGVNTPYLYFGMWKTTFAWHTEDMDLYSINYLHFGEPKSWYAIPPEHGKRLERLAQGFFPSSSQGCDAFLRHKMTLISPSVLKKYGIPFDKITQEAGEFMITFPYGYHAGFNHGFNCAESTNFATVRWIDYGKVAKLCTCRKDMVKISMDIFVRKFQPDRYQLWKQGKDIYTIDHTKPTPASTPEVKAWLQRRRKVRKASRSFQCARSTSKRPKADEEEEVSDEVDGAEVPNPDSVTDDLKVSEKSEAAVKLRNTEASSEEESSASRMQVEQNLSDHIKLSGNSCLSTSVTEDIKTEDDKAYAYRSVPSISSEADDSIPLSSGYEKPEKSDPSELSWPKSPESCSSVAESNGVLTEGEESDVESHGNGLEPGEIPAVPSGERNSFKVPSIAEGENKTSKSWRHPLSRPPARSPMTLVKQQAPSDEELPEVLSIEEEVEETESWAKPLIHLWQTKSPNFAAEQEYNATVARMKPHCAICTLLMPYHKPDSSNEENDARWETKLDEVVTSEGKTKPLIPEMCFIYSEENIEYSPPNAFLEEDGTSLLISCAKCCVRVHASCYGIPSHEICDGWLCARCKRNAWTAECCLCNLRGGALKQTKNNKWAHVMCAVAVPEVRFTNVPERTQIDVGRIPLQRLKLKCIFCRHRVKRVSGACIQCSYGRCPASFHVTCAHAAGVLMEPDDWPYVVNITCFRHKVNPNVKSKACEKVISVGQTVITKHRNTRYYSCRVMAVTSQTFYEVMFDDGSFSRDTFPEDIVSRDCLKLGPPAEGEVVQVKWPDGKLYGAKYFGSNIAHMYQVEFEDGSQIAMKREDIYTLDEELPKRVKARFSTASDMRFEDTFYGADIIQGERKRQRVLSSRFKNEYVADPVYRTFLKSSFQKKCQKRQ

Measured: IC50

Lysine-specific demethylase 5B, sequence (Q9UGL1 whole entry): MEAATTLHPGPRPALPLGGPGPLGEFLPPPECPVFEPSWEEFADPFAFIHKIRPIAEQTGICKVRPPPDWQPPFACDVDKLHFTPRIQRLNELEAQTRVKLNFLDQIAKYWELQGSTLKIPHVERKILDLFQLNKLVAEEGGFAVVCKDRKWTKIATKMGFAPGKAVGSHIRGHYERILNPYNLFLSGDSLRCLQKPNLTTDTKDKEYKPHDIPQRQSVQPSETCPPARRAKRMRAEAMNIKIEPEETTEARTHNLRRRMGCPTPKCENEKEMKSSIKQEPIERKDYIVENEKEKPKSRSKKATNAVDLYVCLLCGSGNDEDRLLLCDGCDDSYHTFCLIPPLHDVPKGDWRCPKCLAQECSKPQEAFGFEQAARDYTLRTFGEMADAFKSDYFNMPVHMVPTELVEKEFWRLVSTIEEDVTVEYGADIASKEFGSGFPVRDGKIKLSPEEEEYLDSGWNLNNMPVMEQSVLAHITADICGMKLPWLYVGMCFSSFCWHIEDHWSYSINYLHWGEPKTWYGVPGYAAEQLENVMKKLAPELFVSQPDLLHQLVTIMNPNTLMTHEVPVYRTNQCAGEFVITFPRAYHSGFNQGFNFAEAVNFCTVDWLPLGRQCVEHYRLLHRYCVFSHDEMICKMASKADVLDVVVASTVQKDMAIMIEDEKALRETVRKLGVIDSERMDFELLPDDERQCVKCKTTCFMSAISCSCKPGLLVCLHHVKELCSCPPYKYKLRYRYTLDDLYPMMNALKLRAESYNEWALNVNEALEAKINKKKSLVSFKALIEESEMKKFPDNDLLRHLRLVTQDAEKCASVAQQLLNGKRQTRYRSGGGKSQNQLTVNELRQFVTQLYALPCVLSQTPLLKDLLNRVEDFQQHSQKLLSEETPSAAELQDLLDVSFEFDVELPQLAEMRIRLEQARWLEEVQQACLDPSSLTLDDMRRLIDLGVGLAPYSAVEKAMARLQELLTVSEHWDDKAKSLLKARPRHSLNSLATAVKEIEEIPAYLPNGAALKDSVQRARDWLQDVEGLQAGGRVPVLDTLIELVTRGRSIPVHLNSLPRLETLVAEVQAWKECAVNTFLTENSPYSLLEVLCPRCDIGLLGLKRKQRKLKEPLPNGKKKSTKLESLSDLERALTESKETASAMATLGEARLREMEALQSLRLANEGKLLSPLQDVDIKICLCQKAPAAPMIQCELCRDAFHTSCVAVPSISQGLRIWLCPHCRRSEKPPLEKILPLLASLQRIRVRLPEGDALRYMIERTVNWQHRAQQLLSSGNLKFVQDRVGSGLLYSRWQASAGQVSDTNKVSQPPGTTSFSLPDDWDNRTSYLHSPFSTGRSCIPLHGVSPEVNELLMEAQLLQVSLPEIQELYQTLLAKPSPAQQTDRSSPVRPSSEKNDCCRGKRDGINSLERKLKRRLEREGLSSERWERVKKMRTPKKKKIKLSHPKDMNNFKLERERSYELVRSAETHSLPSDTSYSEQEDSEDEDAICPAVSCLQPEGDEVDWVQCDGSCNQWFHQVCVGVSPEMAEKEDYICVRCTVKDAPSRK
Lysine-specific demethylase 5A, sequence (P29375 whole entry): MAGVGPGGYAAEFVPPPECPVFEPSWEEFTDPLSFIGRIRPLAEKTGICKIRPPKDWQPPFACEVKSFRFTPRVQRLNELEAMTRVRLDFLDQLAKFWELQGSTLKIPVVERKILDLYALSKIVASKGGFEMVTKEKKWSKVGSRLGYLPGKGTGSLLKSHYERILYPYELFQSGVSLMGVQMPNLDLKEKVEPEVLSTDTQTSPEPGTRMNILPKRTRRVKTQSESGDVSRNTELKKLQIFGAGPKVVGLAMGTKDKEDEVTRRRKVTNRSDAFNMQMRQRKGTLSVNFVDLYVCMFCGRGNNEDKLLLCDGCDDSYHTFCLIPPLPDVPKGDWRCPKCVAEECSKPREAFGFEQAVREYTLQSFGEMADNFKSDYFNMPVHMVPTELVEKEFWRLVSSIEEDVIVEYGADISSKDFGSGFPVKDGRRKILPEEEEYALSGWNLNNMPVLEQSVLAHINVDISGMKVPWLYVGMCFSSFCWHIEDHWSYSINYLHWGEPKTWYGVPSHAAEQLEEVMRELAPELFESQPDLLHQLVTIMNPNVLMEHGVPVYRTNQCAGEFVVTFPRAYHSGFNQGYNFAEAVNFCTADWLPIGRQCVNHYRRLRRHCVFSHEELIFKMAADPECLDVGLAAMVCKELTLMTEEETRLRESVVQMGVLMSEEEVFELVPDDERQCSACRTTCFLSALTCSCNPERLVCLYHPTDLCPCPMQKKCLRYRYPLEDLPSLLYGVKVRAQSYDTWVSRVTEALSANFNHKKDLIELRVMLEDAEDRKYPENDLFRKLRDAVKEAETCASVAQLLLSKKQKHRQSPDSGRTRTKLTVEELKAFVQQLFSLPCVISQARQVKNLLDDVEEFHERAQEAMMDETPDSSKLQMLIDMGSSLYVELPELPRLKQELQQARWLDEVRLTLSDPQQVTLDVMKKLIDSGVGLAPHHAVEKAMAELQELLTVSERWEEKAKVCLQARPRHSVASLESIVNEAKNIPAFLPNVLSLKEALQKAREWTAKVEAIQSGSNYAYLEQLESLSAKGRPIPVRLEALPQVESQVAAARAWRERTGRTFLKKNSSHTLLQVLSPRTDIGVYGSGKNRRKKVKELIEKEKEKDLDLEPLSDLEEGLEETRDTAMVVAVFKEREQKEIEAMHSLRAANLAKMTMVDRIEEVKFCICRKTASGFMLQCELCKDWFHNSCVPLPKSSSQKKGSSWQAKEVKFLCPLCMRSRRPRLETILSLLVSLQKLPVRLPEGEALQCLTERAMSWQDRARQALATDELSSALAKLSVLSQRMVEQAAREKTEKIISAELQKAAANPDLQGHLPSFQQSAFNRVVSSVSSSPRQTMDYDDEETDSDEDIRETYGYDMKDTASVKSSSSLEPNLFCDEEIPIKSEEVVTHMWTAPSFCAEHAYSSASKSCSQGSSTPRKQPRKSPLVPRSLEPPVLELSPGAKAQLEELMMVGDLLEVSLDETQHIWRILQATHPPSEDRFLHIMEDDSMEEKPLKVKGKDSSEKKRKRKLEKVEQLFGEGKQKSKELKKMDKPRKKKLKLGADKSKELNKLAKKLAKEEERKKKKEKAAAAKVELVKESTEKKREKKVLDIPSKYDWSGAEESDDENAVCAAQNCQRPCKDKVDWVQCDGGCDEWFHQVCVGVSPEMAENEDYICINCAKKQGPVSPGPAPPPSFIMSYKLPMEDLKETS

CC1(C)CCN(C(=O)c2cc3nccc(C(=O)O)c3[nH]2)CC1
< 100 nM: all assays above
